We go through 22 molecules from ChEMBL document CHEMBL5365481, “Design, Synthesis, and Activity Evaluation of Novel Dual-Target Inhibitors with Antifungal and Immunoregulatory Properties” (J Med Chem, 2023).

Assay type in all cases: functional
For one assay, the system named is Aspergillus fumigatus. In words: Antifungal activity against Aspergillus fumigatus KM8001 assessed as inhibition of fungal growth incubated for 72 hrs by CLSI based liquid medium microdilution method. (In general: Broth dilution looks for growth in wells or tubes with falling amounts of substance.)
For a further assay, the system named is Pichia kudriavzevii. In words: Antifungal activity against Candida krusei ATCC 6258 assessed as inhibition of fungal growth incubated for 72 hrs by CLSI based liquid medium microdilution method.
Assay [1] relates to Candida albicans. Kind of assay: Antifungal activity against Candida albicans ATCC SC5314 assessed as inhibition of fungal growth incubated for 72 hrs by CLSI based liquid medium microdilution method.
The next assay relates to Candida tropicalis. Kind of assay: Antifungal activity against Candida tropicalis ATCC 1369 assessed as inhibition of fungal growth incubated for 72 hrs by CLSI based liquid medium microdilution method.
The test system of another assay is Cryptococcus neoformans. In words: Antifungal activity against Cryptococcus neoformans ZKCC 2209 assessed as inhibition of fungal growth incubated for 72 hrs by CLSI based liquid medium microdilution method.
Assay [2] has as its system Candida albicans. Kind of assay: Antifungal activity against fluconazole-resistant Candida albicans CaR assessed as inhibition of fungal growth incubated for 72 hrs by CLSI based liquid medium microdilution method.
Assay [3] deals with Candida albicans. In words: Antifungal activity against fluconazole-resistant Candida albicans 904 assessed as inhibition of fungal growth incubated for 72 hrs by CLSI based liquid medium microdilution method.
In assay [4] the test system is Candida albicans. Kind of assay: Antifungal activity against fluconazole-resistant Candida albicans 17# assessed as inhibition of fungal growth incubated for 72 hrs by CLSI based liquid medium microdilution method.
Assay [5] relates to Candida albicans. Kind of assay: Antifungal activity against fluconazole-resistant Candida albicans 632 assessed as inhibition of fungal growth incubated for 72 hrs by CLSI based liquid medium microdilution method.
For assay [6], the system named is Candida albicans. Kind of assay: Antifungal activity against fluconazole-resistant Candida albicans 901 assessed as inhibition of fungal growth incubated for 72 hrs by CLSI based liquid medium microdilution method.

Each structure is given as a SMILES string. ≈ marks a conversion by molar mass, not a printed value.

As to `CS(=O)(=O)c1ccc(NC(=O)c2nc(-n3ccnc3)c3cc(Cl)ccc3n2)cc1`, the MIC50 (usually an inhibitory concentration at the 50% level, which refers to growth in some studies and to a panel of isolates in others) with Aspergillus fumigatus was 4 µg/mL (≈ 9.35 µM); with Pichia kudriavzevii it was 2 µg/mL (≈ 4.67 µM); in the assay on Candida albicans [1], 1 µg/mL (≈ 2.34 µM); in the assay with Candida tropicalis, 2 µg/mL (≈ 4.67 µM); in the assay with Cryptococcus neoformans, 0.5 µg/mL (≈ 1.17 µM).
With `CC(=O)c1ccc(NC(=O)c2nc(-n3ccnc3)c3cc(Cl)ccc3n2)cc1`, the MIC50 with Aspergillus fumigatus is above 8 µg/mL; in the assay with Pichia kudriavzevii, 4 µg/mL (≈ 10.2 µM); in the assay on Candida albicans [1], 1 µg/mL (≈ 2.55 µM); in the assay with Candida tropicalis, 1 µg/mL (≈ 2.55 µM); with Cryptococcus neoformans it was 2 µg/mL (≈ 5.1 µM).
`CS(=O)(=O)c1ccc(NC(=O)c2nc(-n3cncn3)c3ccccc3n2)cc1`: the MIC50 with Aspergillus fumigatus came out at 4 µg/mL (≈ 10.1 µM); in the assay with Pichia kudriavzevii, 2 µg/mL (≈ 5.07 µM); in the assay on Candida albicans [1], 1 µg/mL (≈ 2.54 µM); with Candida tropicalis it was 2 µg/mL (≈ 5.07 µM); in the assay on Cryptococcus neoformans it was 2 µg/mL (≈ 5.07 µM).
On to `COc1ccc(C(=O)N2CCC(NC(=O)c3nc(-n4cncn4)c4ccccc4n3)CC2)cc1`, for which the MIC50 in the assay on Aspergillus fumigatus was 2 µg/mL (≈ 4.37 µM); with Pichia kudriavzevii it was 0.5 µg/mL (≈ 1.09 µM); in the assay on Candida albicans [1] it was 0.5 µg/mL (≈ 1.09 µM); in the assay on Candida tropicalis, 0.5 µg/mL (≈ 1.09 µM); in the assay with Cryptococcus neoformans it was 1 µg/mL (≈ 2.19 µM).
With `O=C(NC1CCCc2ccccc21)c1nc(-n2cncn2)c2ccccc2n1` (stereo not given), the MIC50 in the assay on Aspergillus fumigatus is above 8 µg/mL; in the assay with Pichia kudriavzevii, 2 µg/mL (≈ 5.4 µM); in the assay on Candida albicans [1], 2 µg/mL (≈ 5.4 µM); in the assay with Candida tropicalis, 1 µg/mL (≈ 2.7 µM); in the assay with Cryptococcus neoformans, 4 µg/mL (≈ 10.8 µM).
`O=C(NCc1ccccc1)c1nc(-n2ccnc2)c2ccccc2n1`: the MIC50 in the assay with Aspergillus fumigatus is above 8 µg/mL; in the assay on Pichia kudriavzevii, 1 µg/mL (≈ 3.04 µM); in the assay on Candida albicans [1], 2 µg/mL (≈ 6.07 µM); in the assay on Candida tropicalis, 2 µg/mL (≈ 6.07 µM); in the assay with Cryptococcus neoformans it was 4 µg/mL (≈ 12.1 µM).
For `CC(=O)N1CCN(c2ccc(OCC3COC(Cn4ccnc4)(c4ccc(Cl)cc4Cl)O3)cc2)CC1` (stereo not given) [KETOCONAZOLE], the MIC50 is 4 µg/mL (≈ 7.53 µM) in the assay on Candida albicans [2]; 4 µg/mL (≈ 7.53 µM) in the assay with Aspergillus fumigatus; 1 µg/mL (≈ 1.88 µM) in the assay with Pichia kudriavzevii; 2 µg/mL (≈ 3.76 µM) in the assay on Candida albicans [1]; above 8 µg/mL in the assay on Candida albicans [3]; 2 µg/mL (≈ 3.76 µM) with Candida albicans [4]. Further, the MIC50 in the assay on Candida albicans [5] is above 8 µg/mL; in the assay on Candida tropicalis, 0.5 µg/mL (≈ 0.941 µM); in the assay with Candida albicans [6] it was 4 µg/mL (≈ 7.53 µM); in the assay on Cryptococcus neoformans, 1 µg/mL (≈ 1.88 µM).
Consider `CC(=O)c1ccc(C(=O)N2CCC(NC(=O)c3nc(-n4ccnc4)c4ccccc4n3)CC2)cc1`, for which the MIC50 in the assay with Aspergillus fumigatus amounted to 4 µg/mL (≈ 8.54 µM); with Pichia kudriavzevii it was 1 µg/mL (≈ 2.13 µM); in the assay on Candida albicans [1] it was 2 µg/mL (≈ 4.27 µM); in the assay with Candida tropicalis, 0.5 µg/mL (≈ 1.07 µM); in the assay with Cryptococcus neoformans it was 2 µg/mL (≈ 4.27 µM).
Consider `COc1ccc(C(=O)N2CCC(NC(=O)c3nc(-n4ccnc4)c4ccccc4n3)CC2)cc1`, for which the MIC50 worked out at 4 µg/mL (≈ 8.76 µM) in the assay with Aspergillus fumigatus; 2 µg/mL (≈ 4.38 µM) with Pichia kudriavzevii; 2 µg/mL (≈ 4.38 µM) in the assay with Candida albicans [1]; 1 µg/mL (≈ 2.19 µM) with Candida tropicalis; 1 µg/mL (≈ 2.19 µM) with Cryptococcus neoformans.
On to `O=C(NC1CCCc2ccccc21)c1nc(-n2cncn2)c2cc(Cl)ccc2n1` (stereo not given), for which the MIC50 in the assay with Aspergillus fumigatus is above 8 µg/mL; with Pichia kudriavzevii, above 8 µg/mL; with Candida albicans [1], 2 µg/mL (≈ 4.94 µM); in the assay on Candida tropicalis, 2 µg/mL (≈ 4.94 µM); in the assay with Cryptococcus neoformans, 2 µg/mL (≈ 4.94 µM).
As for `O=C(NC1CCN(C(=O)c2ccccc2)CC1)c1nc(-n2ccnc2)c2ccccc2n1`, the MIC50 in the assay on Aspergillus fumigatus is above 8 µg/mL; with Pichia kudriavzevii, 2 µg/mL (≈ 4.69 µM); in the assay with Candida albicans [1] it was 1 µg/mL (≈ 2.34 µM); in the assay with Candida tropicalis, 1 µg/mL (≈ 2.34 µM); with Cryptococcus neoformans it was 2 µg/mL (≈ 4.69 µM).
Regarding `O=C(NCc1ccccc1)c1nc(-n2cncn2)c2cc(Cl)ccc2n1`, the MIC50 with Aspergillus fumigatus came to 2 µg/mL (≈ 5.48 µM); with Pichia kudriavzevii, 0.5 µg/mL (≈ 1.37 µM); in the assay on Candida albicans [1] it was 1 µg/mL (≈ 2.74 µM); in the assay on Candida tropicalis, 1 µg/mL (≈ 2.74 µM); in the assay with Cryptococcus neoformans, 1 µg/mL (≈ 2.74 µM).
In the case of `O=C(NCc1ccccc1)c1nc(-n2ccnc2)c2cc(Cl)ccc2n1`, the MIC50 in the assay with Aspergillus fumigatus worked out at 4 µg/mL (≈ 11 µM); in the assay with Pichia kudriavzevii, 1 µg/mL (≈ 2.75 µM); in the assay with Candida albicans [1], 2 µg/mL (≈ 5.5 µM); with Candida tropicalis it was 2 µg/mL (≈ 5.5 µM); with Cryptococcus neoformans it was 4 µg/mL (≈ 11 µM).
Take `O=C(NC1CCCc2ccccc21)c1nc(-n2ccnc2)c2cc(Cl)ccc2n1` (stereo not given): the MIC50 in the assay with Aspergillus fumigatus was above 8 µg/mL; in the assay with Pichia kudriavzevii, 4 µg/mL (≈ 9.9 µM); in the assay with Candida albicans [1], above 8 µg/mL; in the assay with Candida tropicalis, 4 µg/mL (≈ 9.9 µM); in the assay with Cryptococcus neoformans, 2 µg/mL (≈ 4.95 µM).
For `O=C(NC1CCN(C(=O)c2ccccc2)CC1)c1nc(-n2cncn2)c2ccccc2n1`, the MIC50 in the assay on Aspergillus fumigatus amounted to 4 µg/mL (≈ 9.36 µM); in the assay on Pichia kudriavzevii it was 1 µg/mL (≈ 2.34 µM); in the assay with Candida albicans [1], 1 µg/mL (≈ 2.34 µM); in the assay on Candida tropicalis it was 1 µg/mL (≈ 2.34 µM); in the assay with Cryptococcus neoformans, 2 µg/mL (≈ 4.68 µM).
For `CC(C)c1ccc(C(=O)N2CCC(NC(=O)c3nc(-n4cncn4)c4ccccc4n3)CC2)cc1`, the MIC50 in the assay with Aspergillus fumigatus worked out at 4 µg/mL (≈ 8.52 µM); in the assay on Pichia kudriavzevii, 0.5 µg/mL (≈ 1.06 µM); in the assay on Candida albicans [1] it was 0.5 µg/mL (≈ 1.06 µM); in the assay on Candida tropicalis it was 1 µg/mL (≈ 2.13 µM); with Cryptococcus neoformans, 2 µg/mL (≈ 4.26 µM).
Regarding `CS(=O)(=O)c1ccc(NC(=O)c2nc(-n3ccnc3)c3ccccc3n2)cc1`, the MIC50 was above 8 µg/mL in the assay with Aspergillus fumigatus; 4 µg/mL (≈ 10.2 µM) in the assay with Pichia kudriavzevii; 2 µg/mL (≈ 5.08 µM) in the assay with Candida albicans [1]; 4 µg/mL (≈ 10.2 µM) in the assay on Candida tropicalis; 1 µg/mL (≈ 2.54 µM) in the assay on Cryptococcus neoformans.
Take `O=C(NCc1ccccc1)c1nc(-n2cncn2)c2ccccc2n1`: the MIC50 in the assay with Aspergillus fumigatus is above 8 µg/mL; in the assay on Pichia kudriavzevii it was 4 µg/mL (≈ 12.1 µM); in the assay on Candida albicans [1], 2 µg/mL (≈ 6.05 µM); in the assay on Candida tropicalis it was 1 µg/mL (≈ 3.03 µM); in the assay on Cryptococcus neoformans, 2 µg/mL (≈ 6.05 µM).
Take `CS(=O)(=O)c1ccc(NC(=O)c2nc(-n3cncn3)c3cc(Cl)ccc3n2)cc1`: the MIC50 in the assay on Aspergillus fumigatus amounted to 2 µg/mL (≈ 4.66 µM); in the assay on Pichia kudriavzevii it was 1 µg/mL (≈ 2.33 µM); with Candida albicans [1] it was 0.5 µg/mL (≈ 1.17 µM); in the assay with Candida tropicalis, 1 µg/mL (≈ 2.33 µM); in the assay on Cryptococcus neoformans it was 0.5 µg/mL (≈ 1.17 µM).
As for `O=C(NC1CCCc2ccccc21)c1nc(-n2ccnc2)c2ccccc2n1` (stereo not given), the MIC50 with Aspergillus fumigatus was 4 µg/mL (≈ 10.8 µM); in the assay on Pichia kudriavzevii, 2 µg/mL (≈ 5.41 µM); with Candida albicans [1] it was 4 µg/mL (≈ 10.8 µM); with Candida tropicalis, 4 µg/mL (≈ 10.8 µM); in the assay with Cryptococcus neoformans, 2 µg/mL (≈ 5.41 µM).
On to `CC(=O)c1ccc(NC(=O)c2nc(-n3cncn3)c3ccccc3n2)cc1`, for which the MIC50 in the assay with Aspergillus fumigatus worked out at 2 µg/mL (≈ 5.58 µM); in the assay on Pichia kudriavzevii, 1 µg/mL (≈ 2.79 µM); with Candida albicans [1] it was 0.5 µg/mL (≈ 1.4 µM); with Candida tropicalis, 0.5 µg/mL (≈ 1.4 µM); with Cryptococcus neoformans it was 0.5 µg/mL (≈ 1.4 µM).
For `CC(=O)c1ccc(NC(=O)c2nc(-n3cncn3)c3cc(Cl)ccc3n2)cc1`, the MIC50 with Aspergillus fumigatus was found to be 4 µg/mL (≈ 10.2 µM); with Pichia kudriavzevii it was 1 µg/mL (≈ 2.55 µM); in the assay on Candida albicans [1], 0.5 µg/mL (≈ 1.27 µM); with Candida tropicalis, 0.5 µg/mL (≈ 1.27 µM); in the assay with Cryptococcus neoformans, 2 µg/mL (≈ 5.09 µM).
